From ChEMBL document CHEMBL5537149, “Design, synthesis, and lead optimization of piperazinyl-pyrimidine analogues as potent small molecules targeting the viral capping machinery of Chikungunya virus” (Eur J Med Chem, 2024)
Values after ≈ are worked out from the molar mass of the structure shown. Active and inactive are the calls of the source. The calls are words filed in the database; no cut-off is given here.

Key:
[1] = target: hERG (KCNH2) (Homo sapiens, UniProt Q12809); experiment: Inhibition of hERG in Xenopus laevis Oocytes upto 30 uM incubated for 10 mins by patch-clamp method relative to control; format: cell-based, Oocyte; details: Xenopus laevis oocytes expressing hERG
Sequence of hERG (KCNH2) (Q12809 whole entry): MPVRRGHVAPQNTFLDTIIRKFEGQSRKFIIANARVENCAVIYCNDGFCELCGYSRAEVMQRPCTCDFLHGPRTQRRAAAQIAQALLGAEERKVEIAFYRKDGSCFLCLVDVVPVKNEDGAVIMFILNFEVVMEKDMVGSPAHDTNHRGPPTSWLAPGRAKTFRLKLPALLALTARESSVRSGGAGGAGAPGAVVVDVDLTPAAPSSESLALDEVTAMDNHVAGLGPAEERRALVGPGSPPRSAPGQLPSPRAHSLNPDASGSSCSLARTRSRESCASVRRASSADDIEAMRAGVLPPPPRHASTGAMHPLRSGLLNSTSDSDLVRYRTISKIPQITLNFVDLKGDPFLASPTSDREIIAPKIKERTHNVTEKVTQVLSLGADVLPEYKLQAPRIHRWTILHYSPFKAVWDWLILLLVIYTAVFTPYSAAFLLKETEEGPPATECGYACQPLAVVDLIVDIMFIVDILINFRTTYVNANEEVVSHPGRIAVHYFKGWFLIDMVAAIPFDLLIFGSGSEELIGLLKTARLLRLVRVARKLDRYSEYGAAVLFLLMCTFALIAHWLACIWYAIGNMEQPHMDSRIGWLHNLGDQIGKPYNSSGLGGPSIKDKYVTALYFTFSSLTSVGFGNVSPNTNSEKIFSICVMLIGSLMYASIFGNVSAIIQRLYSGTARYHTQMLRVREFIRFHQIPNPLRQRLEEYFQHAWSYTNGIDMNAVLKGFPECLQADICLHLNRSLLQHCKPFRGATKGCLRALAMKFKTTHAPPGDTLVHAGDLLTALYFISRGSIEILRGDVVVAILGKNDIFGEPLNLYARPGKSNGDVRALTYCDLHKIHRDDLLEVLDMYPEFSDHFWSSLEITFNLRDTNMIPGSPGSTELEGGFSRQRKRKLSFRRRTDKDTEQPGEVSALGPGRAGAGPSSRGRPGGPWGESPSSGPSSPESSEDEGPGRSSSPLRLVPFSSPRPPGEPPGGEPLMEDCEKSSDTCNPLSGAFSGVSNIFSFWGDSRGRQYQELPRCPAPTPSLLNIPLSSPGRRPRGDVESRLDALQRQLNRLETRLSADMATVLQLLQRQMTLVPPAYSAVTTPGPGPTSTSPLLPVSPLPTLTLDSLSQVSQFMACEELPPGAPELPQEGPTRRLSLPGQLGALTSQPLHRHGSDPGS

[2] = system: Chikungunya virus; experiment: Antiviral activity against Chikungunya virus infected in African green monkey Vero cells assessed as reduction in viral induced cell death incubated for 5 days by MTS reagent based absorbance method; format: functional, organism-based; details: 120 h
[3] = system: Zika virus; experiment: Antiviral activity against Zika virus infected in African green monkey Vero cells assessed as reduction in virus induced cell death; format: functional, organism-based
[4] = system: Sindbis virus; experiment: Antiviral activity against Sindbis virus HRsp infected in African green monkey Vero cells assessed as reduction in virus induced cell death; format: functional, organism-based
[5] = system: Semliki Forest virus; experiment: Antiviral activity against Semliki forest virus infected in African green monkey Vero cells assessed as reduction in virus induced cell death; format: functional, organism-based
[6] = Aqueous solubility of compound at pH 7.4 by HPLC analysis; format: physicochemical
[7] = system: Enterovirus; experiment: Antiviral activity against Human enterovirus 71 infected in African green monkey Vero cells assessed as reduction in virus induced cell death; format: functional, organism-based
[8] = Selectivity index, ratio of CC50 for cytotoxicity against African green monkey Vero cells to EC50 for antiviral activity against Chikungunya virus infected in African green monkey Vero cells assessed as reduction in viral induced cell death; format: toxicity, cell-based; details: read-out: Ratio CC50/EC50
[9] = Cytotoxicity against African green monkey Vero cells assessed as reduction in overall metabolic activity incubated for 5 days by MTS reagent based absorbance method; format: toxicity, cell-based; details: chlorocebus sabaeus, time 5 day
[10] = system: Caco-2; experiment: Cytotoxicity against human Caco-2 cells incubated for 24 to 72 hrs by MTT assay; format: toxicity, cell-based; details: time 24-72 hrs
[11] = system: Caco-2; experiment: Induction of apoptosis in human Caco-2 cells assessed as increase in PARP expression at 6.25 to 100 uM incubated for 72 hrs by Western blot analysis; format: toxicity, cell-based; details: caco-2, 72 h, dose 6.25-100 µM
[12] = system: Caco-2; experiment: Induction of apoptosis in human Caco-2 cells assessed as increase in caspase-3 expression at 6.25 to 100 uM incubated for 72 hrs by Western blot analysis; format: toxicity, cell-based; details: caco-2, 72 h, dose 6.25-100 µM
[13] = Metabolic stability in human liver microsomes assessed as half-life preincubated for 5 mins followed by NADPH addition and measured upto 60 mins by HPLC-MS/MS analysis; format: ADME, Microsome; details: time < 65 min
[14] = system: Chikungunya virus; experiment: Fold resistance , ratio of EC50 for antiviral activity against CHVB-resistant Chikungunya virus infected in African green monkey Vero cells to EC50 for antiviral activity against wildtype Chikungunya virus 899 infected in African green monkey Vero cells; format: functional
[15] = system: Chikungunya virus; experiment: (§1) Antiviral activity against Chikungunya virus 899 infected in African green monkey Vero cells assessed as log10 reduction in intracellular viral level at 2.22 uM preincubated for 2 hrs with subsequent viral infected followed by media replacement with compound and measured after 48 hrs by qRT-PCR analysis; format: functional; details: time 50 hrs
[16] = system: Chikungunya virus; experiment: Antiviral activity against Chikungunya virus 899 infected in African green monkey Vero cells assessed as reduction in viral RNA replication preincubated for 2 hrs with subsequent viral infected followed by media replacement with compound and measured after 48 hrs by qRT-PCR analysis; format: functional, organism-based; details: dose 0.25-60 µM, time 50.0 hrs
[17] = system: Chikungunya virus; experiment: as §1, with “60” for “2.22”; format: functional; details: time 50 hrs
[18] = Metabolic stability in human liver microsomes assessed as parent compound remaining preincubated for 5 mins followed by NADPH addition and measured upto 60 mins by HPLC-MS/MS analysis; format: ADME, Microsome; details: time < 65 min, read-out: Stability

SMILES | inhibition at 10 min, up to 30 µM [1] [%] | EC50 [2] [µM] | Activity [3] | Activity [4] | Activity [5] | solubility [6] [µM] | Activity [7] | selectivity ratio [8] | CC50 at 120 h [9] [µM] | Activity [10] | Activity [11] | Activity [12] | half-life [13] [h] | Ratio EC50 [14] | log(activity) [15] | Activity [16] | log(activity) [17] | remaining at 1 h [18] [%]
O=S(=O)(c1ccc(F)cc1)N1CCN(c2ncccn2)CC1 | 9.63 | 310 | inactive | inactive | inactive | 64 (≈ 20.6 µg/mL) | inactive | – | – | – | – | – | – | – | – | – | – | –
CCNc1nc(C)cc(N2CCN(C(=O)c3ccc(F)cc3)CC2)n1 | – | 1.52 | inactive | inactive | inactive | > 120 | inactive | 109 | 165 | Non-Toxic | Non-Toxic | Non-Toxic | > 1 | – | – | – | – | –
CCCS(=O)(=O)N1CCN(c2nc(C)cc(NCC)n2)CC1 | – | 70 | inactive | inactive | inactive | > 120 | inactive | – | – | – | – | – | – | – | – | – | – | –
CCNc1nc(C)cc(N2CCN(C(=O)c3cccc([N+](=O)[O-])c3)CC2)n1 | – | 0.7 | – | – | – | > 120 | – | > 143 | > 100 | Non-Toxic | Non-Toxic | Non-Toxic | > 1 | 13.3 | ~4.5 | Dose-Dependent Effect | – | –
CCNc1nc(C)cc(N2CCN(C(=O)c3ccc(Br)cc3)CC2)n1 | – | 0.6 | – | – | – | > 120 | – | > 159 | > 96 | Non-Toxic | Non-Toxic | Non-Toxic | > 1 | 8.9 | ~4.5 | Dose-Dependent Effect | >5 | –
CCCC(=O)N1CCN(c2nc(C)cc(NCC)n2)CC1 | – | 67 | inactive | inactive | inactive | > 120 | inactive | – | – | – | – | – | – | – | – | – | – | –
CCNc1nc(C)cc(N2CCN(C(=O)c3ccc([N+](=O)[O-])cc3)CC2)n1 | – | 0.91 | – | – | – | > 120 | – | > 110 | > 100 | Non-Toxic | Non-Toxic | Non-Toxic | > 1 | 14 | – | Dose-Dependent Effect | – | 100
